Earlier results, collected in patent US20060148728A1 (priority 2000, published 2006).

Settings: in vivo; cited from earlier work

COc1cc([C@@H]2c3cc4c(cc3[C@@H](O[C@@H]3O[C@@H]5CO[C@@H](C)O[C@H]5[C@H](O)[C@H]3O)[C@H]3COC(=O)[C@H]23)OCO4)cc(OC)c1O [Etoposide]
Bioavailability of oral etoposide: 40-75%
